system: Botrytis cinerea; assay: Activity against gray mold on bell-pepper leaves caused by Botrytis cinerea, protective application; assay type: in vivo; conditions: 250 ppm, protective spray on bell-pepper seedlings cv. Neusiedler Ideal Elite, inoculated next day, assessed visually after 5 days; untreated plants 90% infected
Description: The active compounds were prepared as a stock solution with 25 mg of active compound which was made up to 10 ml using a mixture of acetone and/or DMSO and the emulsifier Uniperol® EL (wetting agent having emulsifying and dispersing action based on ethoxylated alkylphenols) in a volume ratio of solvent/emulsifier of 99 to 1. The mixture was then made up with water to 100 ml. This stock solution was diluted with the solvent/emulsifier/water mixture described to the concentration of active compound stated below. Bell-pepper seedlings of the cultivar “Neusiedler Ideal Elite” were, after 2 to 3 leaves were well developed, sprayed to runoff point with an aqueous suspension having the concentration of active compound stated below. The next day, the treated plants inoculated with a spore suspension of Botrytis cinerea, which contained 1.7×10^6 spores/ml in a 2% aqueous biomalt solution. The test plants were then placed in a dark climatized chamber at 22 to 24° C. and high atmospheric humidity. After 5 days, the extent of the fungal infection on the leaves could be determined visually in %.

Compound	fungal infection on the leaves
CC1CCCCN1c1c(-c2c(F)ccc(F)c2F)c(C#N)nc2ncnn12 (stereo not drawn) [I-1, 5-cyano-6-(2,3,6-trifluorophenyl)-7-(2-methylpiperidinyl)-1,2,4-triazolo[1,5a]pyrimidine]	no infection
COc1nc2ncnn2c(NC2CCCC2)c1-c1c(F)ccc(F)c1F [I-2, 5-methoxy-6-(2,3,6-trifluorophenyl)-7-cyclopentylamino-1,2,4-triazolo[1,5a]pyrimidine]	no infection
Cc1nc2ncnn2c(N2CCCCC2C)c1-c1c(F)ccc(F)c1F (stereo not drawn) [I-3, 5-methyl-6-(2,3,6-trifluorophenyl)-7-(2-methylpiperidinyl)-1,2,4-triazolo[1,5a]pyrimidine]	no infection
